The target in this test is Human CARM1 (PRMT4) (Homo sapiens (Human), UniProt Q86X55). Nature of the test: CARM1 enzyme assay on peptide substrate (3H-SAM Flashplate). To be noted: Biochemical potencies, classification codes; read-out: Biochem IC50. From the text: S-adenosylmethionine (SAM), S-adenosylhomocysteine (SAH), bicine, Tween20, dimethylsulfoxide (DMSO), bovine skin gelatin (BSG), sodium butyrate and Tris(2-carboxyethyl)phosphine hydrochloride solution (TCEP) were purchased from Sigma-Aldrich at the highest level of purity possible. ^3H-SAM was purchase from American Radiolabeled Chemicals with a specific activity of 80 Ci/mmol. 384-well streptavidin Flashplates were purchased from PerkinElmer.
Sequence of Human CARM1 (PRMT4) (Q86X55 other isoform, or with tags, fused parts or gaps isoform Q86X55-1): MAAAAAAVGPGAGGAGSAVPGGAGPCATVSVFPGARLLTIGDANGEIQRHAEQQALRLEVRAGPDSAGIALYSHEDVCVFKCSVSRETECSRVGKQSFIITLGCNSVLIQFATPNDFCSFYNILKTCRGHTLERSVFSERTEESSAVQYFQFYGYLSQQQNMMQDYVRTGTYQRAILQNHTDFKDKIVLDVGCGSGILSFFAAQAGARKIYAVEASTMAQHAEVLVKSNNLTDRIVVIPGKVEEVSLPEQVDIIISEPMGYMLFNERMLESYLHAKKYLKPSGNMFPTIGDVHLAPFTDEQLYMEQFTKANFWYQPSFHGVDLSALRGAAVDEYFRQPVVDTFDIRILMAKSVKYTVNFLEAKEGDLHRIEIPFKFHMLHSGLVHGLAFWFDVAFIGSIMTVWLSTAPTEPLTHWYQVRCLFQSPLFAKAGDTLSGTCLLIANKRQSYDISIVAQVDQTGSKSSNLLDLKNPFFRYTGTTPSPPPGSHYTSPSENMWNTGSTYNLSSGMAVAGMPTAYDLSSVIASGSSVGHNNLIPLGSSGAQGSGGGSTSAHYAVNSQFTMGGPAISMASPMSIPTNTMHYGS
Peptide representative of human histone H3 residues 16-30 was synthesized with an N-terminal linker-affinity tag motif and a C-terminal amide cap by 21st Century Biochemicals. […] The sequence was Biot-Ahx-[…]-amide and contained a monomethylated arginine at position 26 (SEQ ID NO.:1).
The gene sequence encoding isoform1 containing a deletion of amino acids 539-561 was amplified subsequently and subcloned into pFastBacMam (Viva Biotech).
Recombinant baculovirus were generated according to Bac-to-Bac kit instructions (Life Technologies). Protein over-expression was accomplished by infecting exponentially growing HEK 293F cell culture at 1.3×10^6cell/ml with virus (MOI=10) in the presence of 8 mM sodium butyrate. Infections were carried out at 37° C. for 48 hours, harvested by centrifugation, and stored at −80° C. for purification.
Expressed full-length human Flag- and His-tagged CARM1 protein was purified from cell paste by anti-flag M2 affinity chromatography with resin equilibrated with buffer containing 20 mM Tris, 150 mM NaCl, 5% glycerol, pH 7.8. Column was washed with 500 mM NaCl in buffer A and Flag-CARM1-His was eluted with 200 ug/ml FLAG peptide in buffer A. Pooled fractions were dialyzed in 20 mM Tris, 150 mM NaCl, 5% glycerol and 1 mM DTT, pH 7.8.
The assays were all performed in a buffer consisting of 20 mM Bicine (pH=7.6), 1 mM TCEP, 0.005% BSG, and 0.002% Tween 20, prepared on the day of use. Compounds in 100% DMSO (1 ul) were spotted into a polypropylene 384-well V-bottom plates (Greiner) using a Platemate Plus outfitted with a 384-channel head (Thermo Scientific). DMSO (1 ul) was added to Columns 11, 12, 23, 24, rows A-H for the maximum signal control and 1 ul of SAH, a known product and inhibitor of CARM1, was added to columns 11, 12, 23, 24, rows I-P for the minimum signal control. A cocktail (40 ul) containing the CARM1 enzyme was added by Multidrop Combi (Thermo-Fisher). The compounds were allowed to incubate with CARM1 for 30 min at room temperature, then a cocktail (10 ul) containing ^3H-SAM and peptide was added to initiate the reaction (final volume=51 ul). The final concentrations of the components were as follows: CARM1 was 0.25 nM, ^3H-SAM was 30 nM, peptide was 250 nM, SAH in the minimum signal control wells was 1 mM, and the DMSO concentration was 2%. The assays were stopped by the addition of non-radiolabeled SAM (10 ul) to a final concentration of 300 uM, which dilutes the ^3H-SAM to a level where its incorporation into the peptide substrate is no longer detectable. 50 ul of the reaction in the 384-well polypropylene plate was then transferred to a 384-well Flashplate and the biotinylated peptides were allowed to bind to the streptavidin surface for at least 1 hour before being washed once with 0.1% Tween20 in a Biotek ELx405 plate washer. The plates were then read in a PerkinElmer TopCount plate reader to measure the quantity of ^3H-labeled peptide bound to the Flashplate surface, measured as disintegrations per minute (dpm) or alternatively, referred to as counts per minute (cpm).
where dpm=disintegrations per minute, cmpd=signal in assay well, and min and max are the respective minimum and maximum signal controls.
where top and bottom are the normally allowed to float, but may be fixed at 100 or 0 respectively in a 3-parameter fit. The Hill Coefficient normally allowed to float but may also be fixed at 1 in a 3-parameter fit. Y is the % inhibition and X is the compound concentration.
In general, IC50 refers to the concentration that gives 50% inhibition. As for `CNCC(O)COc1cccc(-c2nc(NCC3(N4CC(F)(F)C4)CCOCC3)c(C)c(-c3c(C)noc3C)n2)c1` (stereo not shown) [Example 302-1a], the IC50 is under 100 nM. On to `CNCC(O)COc1cccc(-c2nc(NC3CCCN(C(=O)C4CC4)C3)c(C)c(-c3c(C)noc3C)n2)c1` (stereo not shown) [Example 247-1a], for which the IC50 is under 100 nM. As to `CNC[C@@H](O)COc1cccc(-c2nc(NC3CCN(C(=O)OC)C(C)C3)c(C)c(-c3c(C)noc3C)n2)c1` (stereo partly shown) [Example 32-3], the IC50 was under 100 nM. To `CNC[C@@H](O)COc1ccc(Cl)c(-c2nc(-c3c(C)noc3C)c(C)c(N3CCC3C)n2)c1` (stereo partly shown) [Example 207-3] belongs under 100 nM; to `CNCC(O)COc1ccc(Cl)c(-c2nc(NC3CCOCC3)c(C)c(-c3c(CO)noc3C)n2)c1` (stereo not shown) [Example 273-3], under 100 nM; to `CNCC(O)COc1cccc(-c2nc(-c3csnc3C)cc(N(C)C3CCOCC3)n2)c1` (stereo not shown) [Example 493-1a], under 100 nM. Turning to `CNCC(O)COc1cccc(-c2nc(N[C@@H]3CCOC3)c(C)c(-n3nc(C)cc3C)n2)c1` (stereo partly shown) [Example 382-1a], the IC50 was under 100 nM. To `CNC[C@H](O)COc1ccc(F)c(-c2nc(NC3CCOC(C)C3)c(C)c(-c3c(C)noc3C)n2)c1` (stereo partly shown) [Example 73-3] belongs under 100 nM. As for `CNC[C@@H](O)COc1ccc(F)c(-c2nc(-c3c(C)noc3C)c(C)c(N3Cc4cnn(C)c4C3)n2)c1` [Example 223-3], the figure is under 100 nM; as for `CNC[C@@H](O)COc1ccc(Cl)c(-c2nc(-c3c(C)noc3C)c(C)c(N3C[C@H]4COC[C@H]4C3)n2)c1` [Example 186-3], under 100 nM; as for `CNC[C@@H](O)COc1ccc(Cl)c(-c2nc(-c3c(C)noc3C)c(C)c(C3CCOCC3)n2)c1` [Example 268-3], under 100 nM. As for `CNCC(O)COc1cccc(-c2nc(NC3(C)CCOCC3)c(F)c(-c3c(C)noc3C)n2)c1` (stereo not shown) [Example 159-1a], the IC50 is under 100 nM. Turning to `CNC[C@@H](O)COc1ccc(Cl)c(-c2nc(-c3c(C)noc3C)c(C)c(N3Cc4cnc(C)nc4C3)n2)c1` [Example 245-3], the IC50 is under 100 nM.

As to `CNCC(O)COc1ccc(Cl)c(-c2nc(NC3CC4(C3)CN(C(=O)OC)C4)c(C)c(-c3c(C)noc3C)n2)c1` (stereo not shown) [Example 45-3], the IC50 was under 100 nM.

As to `NCC(O)COc1cccc(-c2nc(N3CCOCC3)cc(N3CCOCC3)n2)c1` (stereo not shown) [Example 14-1], the IC50 is under 100 nM. Take `CCOC(=O)N1CCOC[C@@H]1CNc1nc(-c2cccc(OC[C@@H](O)CNC)c2)nc(-c2c(C)noc2C)c1C` [Example 278-1a]: the IC50 was under 100 nM. As for `CNC[C@H](O)COc1ccc(Cl)c(-c2nc(NCCC(C)(C)OC)c(C)c(-c3c(C)noc3C)n2)c1` [Example 82-3], the figure is under 100 nM; as for `CNCC(O)COc1cccc(-c2nc(NC3CCOCC3)cc(-c3c(C)noc3C)n2)c1` (stereo not shown) [Example 33-1], under 100 nM; as for `CNC[C@H](O)COc1cccc(-c2nc(NC3CCN(C(=O)OC)CC3)c(C)c(-c3c(C)noc3C)n2)c1` [Example 169-1a], under 100 nM.

Turning to `CNCC(O)COc1cccc(-c2nc(NC3CCOC3)c(C)c(N3CCNC[C@H]3C)n2)c1` (stereo partly shown) [Example 352-1a], the half-maximal inhibitory concentration (IC50) was under 100 nM.

As for `CCOC(=O)N1CCN(c2nc(-c3cccc(OCC(O)CNC)c3)nc(N[C@@H]3CCOC3)c2C)CC1` (stereo partly shown) [Example 456-1a], the IC50 is under 100 nM. To `CNC[C@@H](O)COc1ccc(Cl)c(-c2nc(-c3c(C)noc3C)c(C)c(N(C)[C@H]3CC[C@@H](OC)C3)n2)c1` [Example 213-3] belongs under 100 nM.

As to `CNC[C@@H](O)COc1ccc(Cl)c(-c2nc(OC[C@@H]3CCOC3)c(C)c(-c3c(C)noc3C)n2)c1` [Example 126-3], the IC50 was under 100 nM.

For the compound `CNCC(O)COc1cccc(-c2nc(OCC3CCN(C(=O)N(C)C)CC3)c(C)c(-c3c(C)noc3C)n2)c1` (stereo not shown) [Example 285-1a], the half-inhibitory concentration (IC50) was under 100 nM.

As for `CCS(=O)(=O)N1CC(Nc2nc(-c3cccc(OCC(O)CNC)c3)nc(-c3c(C)noc3C)c2C)C1` (stereo not shown) [Example 273-1a], the IC50 was under 100 nM.
